From patent US9790215B2 (FLATLEY DISCOVERY LAB, LLC, priority 2013, dated 2017)

Target: T1, human ΔF508-CFTR (Homo sapiens, UniProt P13569, DEL508-508)
T1 construct: expressed in transfected cells
Test: CFTR-YFP High Throughput Assay (YFP halide flux in FRT cells)
Type: cell-based
Conditions: FRT cells expressing human ΔF508-CFTR and YFP; forskolin stimulated
Procedure, shortened: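 FRT cells stably co-expressing human ΔF508-CFTR and halide-sensitive YFP-H148Q/I152L were treated with compound […] for 24–26 h at 37 °C (corrector mode), washed, then stimulated with 20 μM forskolin plus 30 μM potentiator P3 for 60–120 min at room temperature. Iodide-induced YFP quench (ex 500/em 540 nm) rates came from least-squares fitting.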

T1 sequence (P13569 with tags, fused parts or gaps DEL508-508): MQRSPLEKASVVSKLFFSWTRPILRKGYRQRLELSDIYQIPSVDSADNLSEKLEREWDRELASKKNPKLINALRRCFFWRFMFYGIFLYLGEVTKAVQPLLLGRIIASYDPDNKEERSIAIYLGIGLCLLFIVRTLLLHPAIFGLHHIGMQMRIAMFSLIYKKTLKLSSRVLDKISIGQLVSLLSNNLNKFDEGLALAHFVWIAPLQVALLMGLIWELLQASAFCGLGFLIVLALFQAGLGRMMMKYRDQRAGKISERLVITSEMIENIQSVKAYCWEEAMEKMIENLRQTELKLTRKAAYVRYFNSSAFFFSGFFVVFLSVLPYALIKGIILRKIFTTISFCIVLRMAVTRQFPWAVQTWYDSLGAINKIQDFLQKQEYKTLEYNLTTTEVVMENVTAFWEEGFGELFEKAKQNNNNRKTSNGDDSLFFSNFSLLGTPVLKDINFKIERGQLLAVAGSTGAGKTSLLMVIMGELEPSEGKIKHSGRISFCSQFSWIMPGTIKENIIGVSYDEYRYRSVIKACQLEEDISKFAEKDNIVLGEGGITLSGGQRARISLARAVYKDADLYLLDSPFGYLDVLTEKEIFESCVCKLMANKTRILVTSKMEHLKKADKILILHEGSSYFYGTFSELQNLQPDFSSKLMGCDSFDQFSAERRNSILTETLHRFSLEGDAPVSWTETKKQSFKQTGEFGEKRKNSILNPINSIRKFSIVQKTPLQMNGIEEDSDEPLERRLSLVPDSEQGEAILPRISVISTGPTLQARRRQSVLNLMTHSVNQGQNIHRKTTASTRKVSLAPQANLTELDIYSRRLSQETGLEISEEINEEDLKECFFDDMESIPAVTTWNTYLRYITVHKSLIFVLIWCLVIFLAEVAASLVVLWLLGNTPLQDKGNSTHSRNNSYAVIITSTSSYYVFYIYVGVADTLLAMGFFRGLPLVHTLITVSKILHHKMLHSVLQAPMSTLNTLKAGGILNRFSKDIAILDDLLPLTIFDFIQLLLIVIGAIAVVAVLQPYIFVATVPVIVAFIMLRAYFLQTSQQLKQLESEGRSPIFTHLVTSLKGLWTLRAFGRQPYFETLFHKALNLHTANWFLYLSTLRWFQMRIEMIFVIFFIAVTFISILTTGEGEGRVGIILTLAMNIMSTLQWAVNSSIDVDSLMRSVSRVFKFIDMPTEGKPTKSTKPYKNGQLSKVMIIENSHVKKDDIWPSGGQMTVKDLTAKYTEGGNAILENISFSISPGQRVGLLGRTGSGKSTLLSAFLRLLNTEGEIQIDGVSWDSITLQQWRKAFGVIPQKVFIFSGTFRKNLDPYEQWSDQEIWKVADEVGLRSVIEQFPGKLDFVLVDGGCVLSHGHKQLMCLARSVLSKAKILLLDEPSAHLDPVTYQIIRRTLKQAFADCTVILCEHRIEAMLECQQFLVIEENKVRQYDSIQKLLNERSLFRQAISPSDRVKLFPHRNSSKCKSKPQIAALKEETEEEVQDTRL

| EC50 [µM] | SMILES |
| --- | --- |
| 10 to 20 | CCN(C(=O)Cn1ncc2c(c1=O)c1ccccc1n2Cc1ccccn1)c1ccc2c(c1)OC(F)(F)O2 [Example 85, N-(2,2-difluorobenzo[d][1,3]dioxol-5-yl)-N-ethyl-2-(1-oxo-5-(pyridin-2-ylmethyl)-1H-pyridazino[4,5-b]indol-2(5H)-yl)acetamide] |
| < 10 | CCN(C(=O)Cn1ncc2c(c1=O)c1ccccc1n2CCOC)c1ccc2c(c1)OC(F)(F)O2 [Example 86, N-(2,2-difluorobenzo[d] [1,3]dioxol-5-yl)-N-ethyl-2-(5-(2-methoxyethyl)-1-oxo-1H-pyridazino[4,5-b]indol-2(5H)-yl)acetamide] |
| < 10 | CCN(C(=O)Cn1ncc2c(c1=O)c1ccccc1n2Cc1ccccc1)c1ccc2c(c1)OC(F)(F)O2 [Example 87, 2-(5-benzyl-1-oxo-1H-pyridazino[4,5-b]indol-2(5H)-yl)-N-(2,2-difluorobenzo[d][1,3]dioxol-5-yl)-N-ethylacetamide] |
| < 10 | CCN(C(=O)Cn1ncc2c(c1=O)c1ccccc1n2CCC(=O)OC)c1ccc2c(c1)OC(F)(F)O2 [Example 88, methyl 3-(2-(2-((2,2-difluorobenzo[d][1,3]dioxol-5-yl)(ethyl)amino)-2-oxoethyl)-1-oxo-1H-pyridazino[4,5-b]indol-5(2H)-yl)propanoate] |
| 10 to 20 | CCN(C(=O)Cn1ncc2c(c1=O)c1ccccc1n2Cc1cccc(OC)c1)c1ccc2c(c1)OC(F)(F)O2 [Example 89, N-(2,2-difluorobenzo[d] [1,3]dioxol-5-yl)-N-ethyl-2-(5-(3-methoxybenzyl)-1-oxo-1H-pyridazino[4,5-b]indol-2(5H)-yl)acetamide] |
| 10 to 20 | CCN(C(=O)Cn1ncc2c(c1=O)c1ccccc1n2Cc1ccc(OC)cc1)c1ccc2c(c1)OC(F)(F)O2 [Example 90, N-(2,2-difluorobenzo[d][1,3]dioxol-5-yl)-N-ethyl-2-(5-(4-methoxy-benzyl)-1-oxo-1H-pyridazino[4,5-b]indol-2(5H)-yl)acetamide] |
| < 10 | CCN(C(=O)Cn1ncc2c(c1=O)c1ccccc1n2CCCOC)c1ccc2c(c1)OC(F)(F)O2 [Example 91, N-(2,2-difluorobenzo[d] [1,3]dioxol-5-yl)-N-ethyl-2-(5-(3-methoxypropyl)-1-oxo-1H-pyridazino[4,5-b]indol-2(5H)-yl)acetamide] |
| < 10 | CCN(C(=O)Cn1ncc2c(c1=O)c1ccccc1n2CCC#N)c1ccc2c(c1)OC(F)(F)O2 [Example 92, 2-(5-(2-cyanoethyl)-1-oxo-1H-pyridazino[4,5-b]indol-2(5H)-yl)-N-(2,2-difluorobenzo[d][1,3]dioxol-5-yl)-N-ethylacetamide] |
| < 10 | CCN(C(=O)Cn1ncc2c(c1=O)c1ccccc1n2CC#N)c1ccc2c(c1)OC(F)(F)O2 [Example 93, 2-(5-(cyanomethyl)-1-oxo-1H-pyridazino[4,5-b]indol-2(5H)-yl)-N-(2,2-difluorobenzo[d][1,3]dioxol-5-yl)-N-ethylacetamide] |
| < 10 | CCN(C(=O)Cn1ncc2c(c1=O)c1ccccc1n2Cc1cccnc1)c1ccc2c(c1)OC(F)(F)O2 [Example 94, N-(2,2-difluorobenzo[d][1,3]dioxol-5-yl)-N-ethyl-2-(1-oxo-5-(pyridin-3-ylmethyl)-1H-pyridazino[4,5-b]indol-2(5H)-yl)acetamide] |
| < 10 | CCN(C(=O)Cn1ncc2c(c1=O)c1ccccc1n2Cc1ccccc1C#N)c1ccc2c(c1)OC(F)(F)O2 [Example 95, 2-(5-(2-cyanobenzyl)-1-oxo-1H-pyridazino[4,5-b]indol-2(5H)-yl)-N-(2,2-difluorobenzo[d][1,3]dioxol-5-yl)-N-ethylacetamide] |
| < 10 | CCN(C(=O)Cn1ncc2c(c1=O)c1ccccc1n2Cc1cccc(C#N)c1)c1ccc2c(c1)OC(F)(F)O2 [Example 96, 2-(5-(3-cyanobenzyl)-1-oxo-1H-pyridazino[4,5-b]indol-2(5H)-yl)-N-(2,2-difluorobenzo[d][1,3]dioxol-5-yl)-N-ethylacetamide] |
